{
  "source": "paper PMC11649115",
  "about": "“In vitro safety evaluation of dopamine D3R antagonist, R-VK4-116, as a potential medication for the treatment of opioid use disorder” (PLOS ONE, 2024)",
  "key": {"[1]": {"test_system": "24 receptor targets", "test": "Cellular and nuclear receptor functional assays, agonist and antagonist effect (panel)", "type": "cell-based", "details": "10 μM", "procedure": "(§1) The purpose of this study was to provide a first step in preliminary safety assessments by providing early identification of potential off-target interactions for the optimization of safety margins. This study was conducted by Eurofins Cerep (France) and Eurofins Discovery (St. Charles, MO). R-VK4-116 was tested in enzyme and uptake assay with 10 enzyme targets (Figs 4 and 5 in S1 File), and cellular and nuclear receptor functional assays with 24 receptor targets (Figs 5 and 6 in S1 File). Compound enzyme inhibition effect was calculated as a % inhibition of control enzyme activity. The cellular agonist effect was calculated as a % of the control response to a known reference agonist for each target, and the cellular antagonist effect was calculated as a % inhibition of the control reference agonist response for each target."}, "[2]": {"target": "T1, OATP1B1 (Homo sapiens, UniProt Q9Y6L6)", "T1 construct": "expressed in transfected cells; host or cells: MDCK-II cells", "T1 sequence (Q9Y6L6 1-691)": "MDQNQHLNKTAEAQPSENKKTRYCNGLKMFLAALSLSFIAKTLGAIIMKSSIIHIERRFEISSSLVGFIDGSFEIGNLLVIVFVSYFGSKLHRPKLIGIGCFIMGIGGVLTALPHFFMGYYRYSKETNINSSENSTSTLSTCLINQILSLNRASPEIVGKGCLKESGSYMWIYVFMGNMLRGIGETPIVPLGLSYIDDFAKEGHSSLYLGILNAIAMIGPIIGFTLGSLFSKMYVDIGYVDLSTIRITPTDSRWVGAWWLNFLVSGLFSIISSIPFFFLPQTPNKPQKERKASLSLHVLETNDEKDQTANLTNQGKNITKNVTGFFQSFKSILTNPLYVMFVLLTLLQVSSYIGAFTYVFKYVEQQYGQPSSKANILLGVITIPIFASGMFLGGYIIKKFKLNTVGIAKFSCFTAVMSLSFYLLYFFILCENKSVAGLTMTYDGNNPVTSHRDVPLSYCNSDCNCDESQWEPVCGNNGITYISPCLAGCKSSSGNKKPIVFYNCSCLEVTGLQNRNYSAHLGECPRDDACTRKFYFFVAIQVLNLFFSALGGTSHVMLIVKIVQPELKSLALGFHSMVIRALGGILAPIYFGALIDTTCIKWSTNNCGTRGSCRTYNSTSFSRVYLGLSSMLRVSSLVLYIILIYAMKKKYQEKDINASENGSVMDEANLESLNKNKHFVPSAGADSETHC", "test": "Transporter mediated assay (substrate/inhibitor), MDCK-II cells", "type": "in vitro ADME", "description": "The MDCK-II cells were treated to express the transporter of interest. The transport of each probe substrate was determined by radiometric detection (Fig 1 in S1 File). […] For the uptake assay, the net transporter-mediated uptake-rate (V) of the substrate by each SLC transporter was calculated as follows: Transporter–mediatedupdaterate(pmol/min/cm^2)=(Cellularaccumulationincellsexpressingthetransporter)−(Meancellularaccumulationincontrolcells)/Surfacearea×incubationtime\nFold of activity and percent inhibition were determined as follows: Foldofactivity=(Meanuptakerate)transporterexpressingcells/(Meanuptakerate)controlcells Percentinhibition=100−100×(Transport‐mediatedupdaterate)withinhibitor/(Transport‐mediatedupdaterate)vehiclecontrol"}, "[3]": {"target": "T2, α1A(h) (Homo sapiens, UniProt P35348)", "T2 construct": "Eurofins Cerep (France) and Eurofins Discovery (St. Charles, MO)", "T2 sequence (P35348 whole entry)": "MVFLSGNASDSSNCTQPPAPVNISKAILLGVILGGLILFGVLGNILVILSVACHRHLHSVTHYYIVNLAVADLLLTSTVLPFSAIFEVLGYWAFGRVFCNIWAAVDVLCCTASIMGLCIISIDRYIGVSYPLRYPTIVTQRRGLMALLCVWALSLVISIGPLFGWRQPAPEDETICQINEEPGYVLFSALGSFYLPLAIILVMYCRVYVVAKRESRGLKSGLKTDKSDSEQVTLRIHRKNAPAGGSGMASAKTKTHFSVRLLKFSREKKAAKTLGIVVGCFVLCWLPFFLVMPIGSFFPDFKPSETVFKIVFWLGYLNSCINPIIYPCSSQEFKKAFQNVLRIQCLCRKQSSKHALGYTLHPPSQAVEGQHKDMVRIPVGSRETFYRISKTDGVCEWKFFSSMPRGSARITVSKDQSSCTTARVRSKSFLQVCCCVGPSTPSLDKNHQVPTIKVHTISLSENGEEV", "test": "Cellular and nuclear receptor functional assay, antagonist effect", "type": "cell-based", "procedure": "as §1"}, "[4]": {"target": "T3, H1(h) (Homo sapiens, UniProt P35367)", "T3 construct": "Eurofins Cerep (France) and Eurofins Discovery (St. Charles, MO)", "T3 sequence (P35367 whole entry)": "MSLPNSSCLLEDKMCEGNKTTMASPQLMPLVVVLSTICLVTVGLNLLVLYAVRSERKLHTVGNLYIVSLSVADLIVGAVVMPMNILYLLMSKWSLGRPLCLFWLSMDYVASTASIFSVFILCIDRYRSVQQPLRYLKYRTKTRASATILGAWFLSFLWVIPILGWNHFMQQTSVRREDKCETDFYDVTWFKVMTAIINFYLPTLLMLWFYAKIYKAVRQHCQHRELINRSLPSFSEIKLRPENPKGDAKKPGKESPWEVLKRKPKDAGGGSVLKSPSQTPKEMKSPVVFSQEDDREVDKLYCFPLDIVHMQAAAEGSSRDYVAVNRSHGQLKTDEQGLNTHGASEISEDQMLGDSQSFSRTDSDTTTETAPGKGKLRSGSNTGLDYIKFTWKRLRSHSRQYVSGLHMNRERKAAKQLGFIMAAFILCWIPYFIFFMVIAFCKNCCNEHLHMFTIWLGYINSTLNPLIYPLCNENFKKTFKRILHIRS", "test": "Cellular and nuclear receptor functional assay, antagonist effect", "type": "cell-based", "procedure": "as §1"}, "[5]": {"target": "T4, 5-HT2B(h) (Homo sapiens, UniProt P41595)", "T4 construct": "Eurofins Cerep (France) and Eurofins Discovery (St. Charles, MO)", "T4 sequence (P41595 whole entry)": "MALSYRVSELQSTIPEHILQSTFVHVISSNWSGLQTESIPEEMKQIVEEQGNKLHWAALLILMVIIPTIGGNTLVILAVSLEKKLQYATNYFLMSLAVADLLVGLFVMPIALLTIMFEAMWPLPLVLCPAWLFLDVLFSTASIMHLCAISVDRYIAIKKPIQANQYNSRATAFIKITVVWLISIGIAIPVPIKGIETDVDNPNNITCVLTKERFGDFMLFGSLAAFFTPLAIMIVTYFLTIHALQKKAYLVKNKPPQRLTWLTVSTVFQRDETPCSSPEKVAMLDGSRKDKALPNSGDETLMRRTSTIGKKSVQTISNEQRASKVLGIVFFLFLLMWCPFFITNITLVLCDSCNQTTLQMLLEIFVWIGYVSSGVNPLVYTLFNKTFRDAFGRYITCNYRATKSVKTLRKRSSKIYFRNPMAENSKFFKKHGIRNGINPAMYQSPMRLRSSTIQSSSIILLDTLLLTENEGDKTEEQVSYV", "test": "Cellular and nuclear receptor functional assay, antagonist effect", "type": "cell-based", "details": "10 μM", "procedure": "as §1"}, "[6]": {"target": "T5, V1a(h) (Homo sapiens, UniProt P37288)", "T5 construct": "Eurofins Cerep (France) and Eurofins Discovery (St. Charles, MO)", "T5 sequence (P37288 whole entry)": "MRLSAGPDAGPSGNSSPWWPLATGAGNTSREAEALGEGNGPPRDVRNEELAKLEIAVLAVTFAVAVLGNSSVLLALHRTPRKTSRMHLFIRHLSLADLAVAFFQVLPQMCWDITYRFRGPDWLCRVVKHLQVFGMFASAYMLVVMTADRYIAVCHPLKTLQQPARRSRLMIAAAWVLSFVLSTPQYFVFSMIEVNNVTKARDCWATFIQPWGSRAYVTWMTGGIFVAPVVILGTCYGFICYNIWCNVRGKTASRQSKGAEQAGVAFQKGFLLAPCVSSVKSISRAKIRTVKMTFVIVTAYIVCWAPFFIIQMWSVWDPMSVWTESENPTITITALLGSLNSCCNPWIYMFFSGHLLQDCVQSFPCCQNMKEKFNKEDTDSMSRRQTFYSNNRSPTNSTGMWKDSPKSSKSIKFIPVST", "test": "Cellular and nuclear receptor functional assay, antagonist effect", "type": "cell-based", "details": "10 μM", "procedure": "as §1"}, "[7]": {"target": "T6, CYP2B6 (Homo sapiens, UniProt P20813)", "T6 sequence (P20813 1-491)": "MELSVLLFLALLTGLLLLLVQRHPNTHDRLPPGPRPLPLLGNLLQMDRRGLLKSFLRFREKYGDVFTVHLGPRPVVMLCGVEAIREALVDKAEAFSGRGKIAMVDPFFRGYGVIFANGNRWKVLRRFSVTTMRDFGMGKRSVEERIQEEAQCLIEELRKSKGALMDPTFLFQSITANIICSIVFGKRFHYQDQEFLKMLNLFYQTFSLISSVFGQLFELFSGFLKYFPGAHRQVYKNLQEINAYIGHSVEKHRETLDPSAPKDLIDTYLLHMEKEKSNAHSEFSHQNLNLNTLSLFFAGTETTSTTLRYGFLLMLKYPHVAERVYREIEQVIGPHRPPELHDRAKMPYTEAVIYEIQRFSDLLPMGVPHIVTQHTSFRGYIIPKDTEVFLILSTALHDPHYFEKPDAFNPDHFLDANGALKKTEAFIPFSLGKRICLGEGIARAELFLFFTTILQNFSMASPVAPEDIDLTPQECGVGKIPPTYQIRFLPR", "test": "CYP inhibition in human liver microsomes", "details": "human liver microsomes"}, "[8]": {"test": "Metabolite identification in liver microsomes", "type": "in vitro ADME", "details": "10 μM R-VK4-116, 120 min", "procedure": "Reactions were stopped by removing 100 μl aliquots at 120 min and mixing with 200 μl of acetonitrile. Following brief vortexing and centrifugation, the supernatant was transferred to an HPLC vial fitted with a 300 μl glass insert for metabolite analysis using a Sciex 4000QTrap mass spectrometer."}, "[9]": {"target": "T7, P-gp (Homo sapiens, UniProt P08183)", "T7 construct": "expressed in transfected cells; host or cells: MDCK-II cells", "T7 sequence (P08183 whole entry)": "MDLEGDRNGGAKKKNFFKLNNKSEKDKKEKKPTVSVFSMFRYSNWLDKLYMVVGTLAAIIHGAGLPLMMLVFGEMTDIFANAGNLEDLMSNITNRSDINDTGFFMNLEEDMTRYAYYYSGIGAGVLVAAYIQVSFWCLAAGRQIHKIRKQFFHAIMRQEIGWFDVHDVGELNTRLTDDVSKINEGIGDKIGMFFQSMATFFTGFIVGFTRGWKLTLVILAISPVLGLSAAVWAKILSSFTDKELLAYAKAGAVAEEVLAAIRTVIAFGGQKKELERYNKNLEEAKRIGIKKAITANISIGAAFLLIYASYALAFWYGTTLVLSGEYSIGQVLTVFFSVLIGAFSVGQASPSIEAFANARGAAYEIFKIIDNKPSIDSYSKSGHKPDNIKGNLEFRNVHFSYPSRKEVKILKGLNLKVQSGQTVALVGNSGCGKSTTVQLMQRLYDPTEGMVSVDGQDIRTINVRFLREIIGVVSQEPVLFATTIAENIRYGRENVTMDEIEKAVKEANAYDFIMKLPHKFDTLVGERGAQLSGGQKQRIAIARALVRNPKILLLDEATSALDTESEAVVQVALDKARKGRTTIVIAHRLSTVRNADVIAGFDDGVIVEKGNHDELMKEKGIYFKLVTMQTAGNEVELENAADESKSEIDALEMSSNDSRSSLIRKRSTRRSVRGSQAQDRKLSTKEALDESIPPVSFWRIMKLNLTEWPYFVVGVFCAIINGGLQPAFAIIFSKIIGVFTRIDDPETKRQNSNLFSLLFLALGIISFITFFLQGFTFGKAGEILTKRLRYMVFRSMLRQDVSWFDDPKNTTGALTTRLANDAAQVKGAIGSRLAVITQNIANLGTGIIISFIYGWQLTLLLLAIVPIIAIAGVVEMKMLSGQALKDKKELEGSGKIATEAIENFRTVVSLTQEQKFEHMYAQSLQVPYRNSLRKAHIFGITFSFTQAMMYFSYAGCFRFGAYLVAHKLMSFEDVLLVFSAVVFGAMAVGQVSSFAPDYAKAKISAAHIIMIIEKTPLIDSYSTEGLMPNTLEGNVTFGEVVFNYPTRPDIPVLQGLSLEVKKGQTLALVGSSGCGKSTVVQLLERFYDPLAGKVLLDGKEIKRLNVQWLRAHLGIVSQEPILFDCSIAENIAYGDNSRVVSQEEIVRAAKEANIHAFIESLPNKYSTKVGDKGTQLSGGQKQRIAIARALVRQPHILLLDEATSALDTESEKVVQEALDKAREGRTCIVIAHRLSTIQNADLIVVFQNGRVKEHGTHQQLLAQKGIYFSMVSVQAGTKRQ", "test": "Transporter mediated assay (substrate/inhibitor), MDCK-II cells", "type": "in vitro ADME", "details": "human", "description": "The MDCK-II cells were treated to express the transporter of interest.\nFor BCRP and P-gp, the apparent permeability Papp and Efflux Ratio (ER) were calculated [16]. Net basal (B) to apical (A) flux (B → A) of the substrate transport (pmol/min/cm^2) by BCRP or P-gp was calculated by subtracting A → B flux from B → A flux."}, "[10]": {"details": "MDCK-MDR1, P-gp, substrate test, 1 µM"}},
  "data": [
    {"smiles": "CCc1cc(Cl)c(OC)c(N2CCN(CC(O)CCNC(=O)c3cc4ccccc4[nH]3)CC2)c1", "note": "(centres unmarked) [R-VK4-116, N-(4-(4-(3-chloro-5-ethyl-2-methoxyphenyl)piperazin-1-yl)-3-hydroxybutyl)-1H-indole-2-carboxamide]", "values": [
      {"measurement": "agonist and antagonist effects for most of the targets", "setting": "[1]", "value": "did not exhibit agonist and antagonist effects"},
      {"measurement": "fold difference in mean uptake rate (substrate test)", "setting": "[2]; OATP1B1, 1 μM, transporter cells vs control cells", "value": "< 2", "unit": "fold"},
      {"measurement": "Inhibition (%)", "setting": "[2]; OATP1B1, 0.1% BSA, 10 μM", "value": "no statistically significant inhibition"},
      {"measurement": "inhibition at 10 µM", "setting": "[2]; human, polarized monolayer of MDCK-II cells expressing OATP1B1, OATP1B1, 0.1% BSA, 10 μM", "value": "5.5 ± 17.3", "unit": "%"},
      {"measurement": "inhibition at 10 µM", "setting": "[3]", "value": 82.9, "unit": "%"},
      {"measurement": "inhibition at 10 µM", "setting": "[4]", "value": 86.1, "unit": "%"},
      {"measurement": "antagonist effect", "setting": "[5]", "value": 44.6, "unit": "%"},
      {"measurement": "antagonist effect", "setting": "[6]", "value": 27.8, "unit": "%"},
      {"measurement": "CYP2B6 inhibition", "setting": "[7]; up to 100 μM", "value": "did not inhibit CYP significantly"},
      {"measurement": "activity at 20 min, 0.1 µM", "setting": "[7]; human, probe bupropion", "value": "99.6 ± 7.5", "unit": "%"},
      {"measurement": "activity at 20 min, 0.3 µM", "setting": "[7]; human, probe bupropion", "value": "90.9 ± 2.5", "unit": "%"},
      {"measurement": "activity at 20 min, 1 µM", "setting": "[7]; human, probe bupropion", "value": "91.2 ± 1.4", "unit": "%"},
      {"measurement": "activity at 20 min, 3 µM", "setting": "[7]; human, probe bupropion", "value": "99.8 ± 7.6", "unit": "%"},
      {"measurement": "activity at 20 min, 10 µM", "setting": "[7]; human, probe bupropion", "value": "97.5 ± 6.6", "unit": "%"},
      {"measurement": "activity at 20 min, 30 µM", "setting": "[7]; human, probe bupropion", "value": "89.3 ± 1.2", "unit": "%"},
      {"measurement": "activity at 20 min, 60 µM", "setting": "[7]; human, probe bupropion", "value": "91 ± 0.7", "unit": "%"},
      {"measurement": "activity at 20 min, 100 µM", "setting": "[7]; human, probe bupropion", "value": "97 ± 4.9", "unit": "%"},
      {"measurement": "% Area", "setting": "[8]; dog liver microsomes, MRM product ion 116.1", "value": 10.4, "unit": "%"},
      {"measurement": "% Area", "setting": "[8]; dog liver microsomes, MRM product ion 144.1", "value": 28.6, "unit": "%"},
      {"measurement": "% Area", "setting": "[8]; human liver microsomes, MRM product ion 116.1", "value": 62.4, "unit": "%"},
      {"measurement": "% Area", "setting": "[8]; human liver microsomes, MRM product ion 144.1", "value": 4.1, "unit": "%"},
      {"measurement": "% Area", "setting": "[8]; rat liver microsomes, MRM product ion 116.1", "value": 8.2, "unit": "%"},
      {"measurement": "% Area", "setting": "[8]; rat liver microsomes, MRM product ion 144.1", "value": 86.1, "unit": "%"},
      {"measurement": "Papp A→B at 1 µM", "setting": "[9]; [10]", "value": "< 0.2", "unit": "×10⁻⁶ cm/s"},
      {"measurement": "Papp B→A at 1 µM", "setting": "[9]; [10]", "value": "< 0.1", "unit": "×10⁻⁶ cm/s"},
      {"measurement": "inhibition at 10 µM", "setting": "[9]; probe quinidine 0.1 μM", "value": "56.5 ± 6.17", "unit": "%"}
    ]}
  ]
}
